{"source": "patent US11149248B2", "about": "“Bioreactor system” (KIYATEC INC., priority 2013, dated 2021)", "key": {"[1]": {"tested_on": "Human mammary epithelial cells (hMEC)", "assay": "PrestoBlue cell viability analysis in 2D, 3D static and 3D perfusion culture", "type": "cell-based", "details": "hMEC cultured over 7 days with increasing concentrations of cisplatin, 3D static, 3D perfusion (FIG. 16)", "protocol": "(§1) The experiment was performed in a single chamber culture system (one chamber of a 3DKUBE in an “independent chamber” configuration) or using wells in a 12-well plate. […] The inlet port was connected to an opening in a first side of the 3DKUBE cell module and the outlet port connected to an opening in a second side of the cell module. The chamber featured an imaging widow enabling non-lytic analysis inside the chamber through various spectrophotometric and other techniques.\n(§2) Human mammary epithelial cells (hMEC) were utilized. For 2D experiments hMEC were cultured on the bottom of 12-well plates as per typical cell culture practices (referred to as “2D” experiments). For 3D static and perfusion experiments hMEC were suspended in a Matrigel™:Collagen (rat tail collagen Type I) mixture which was added to silk fibroin scaffolds (H 2.5 mm×W 5 mm) contained in 12-well plates (referred to as “3D static”) or 3DKUBEs (referred to as “3D perfusion”). […]\n(§3) The secretion of lactate dehydrogenase (LDH) is a non-lytic assay of cytotoxicity. […] The cells were cultured in these 2D, 3D static, or 3D perfusion configurations over 7 days in media alone or in media with increasing concentrations of cisplatin (a DNA alkylating agent used in chemotherapy) and analyzed via PrestoBlue or LDH release (examples of non-lytic means of assessing cell viability or cytotoxicity). […]"}, "[2]": {"tested_on": "Human mammary epithelial cells (hMEC)", "assay": "LDH release cytotoxicity assay in 2D, 3D static and 3D perfusion culture", "type": "cell-based", "details": "2% triton 2 hours prior to analysis, positive control", "protocol": "as §1, §2, §3"}}}
{"compound": "N.N.[Cl][Pt][Cl]", "note": "[cisplatin]", "values": [{"measurement": "cell viability (PrestoBlue analysis)", "setting": "[1]", "result": "decrease in cell viability that is only statistically significant in 3D static and 3D perfusion"}]}
{"compound": "triton", "values": [{"measurement": "maximal cell lysis (LDH release)", "setting": "[2]; 2D and 3D static (12-well plates)", "result": "reduced maximal cell lysis"}, {"measurement": "increase of LDH release", "setting": "[2]; 3D perfusion (3DKUBE)", "result": "approximately 2.5 fold"}]}
